Source: ChEMBL document CHEMBL1201862, “PubChem BioAssay data set” (2004)
Active and inactive are the calls of the source.

How the values were obtained:
[1] = biological target: T1, Small ubiquitin-related modifier 1 (Homo sapiens, UniProt P63165); assay: SUMO1 protein interaction blockers, potency – biochemical, fluorescence polarization, uHTS hits, dose response (AID 624382); format: functional; conditions: read-out: IC50_Mean
[2] = biological target: T1, Small ubiquitin-related modifier 1; assay: SUMO1 protein-protein binding blockers, potency – biochemical, FRET, dose response (AID 624383); format: functional; conditions: read-out: IC50_Mean
[3] = biological target: T2, Apoptotic protease-activating factor 1 (Homo sapiens, UniProt O14727); assay: activation of Apaf-1 mediated apoptosis – fluorescent, uHTS hits, dose response (AID 588554); format: functional
T2 sequence (O14727 whole entry): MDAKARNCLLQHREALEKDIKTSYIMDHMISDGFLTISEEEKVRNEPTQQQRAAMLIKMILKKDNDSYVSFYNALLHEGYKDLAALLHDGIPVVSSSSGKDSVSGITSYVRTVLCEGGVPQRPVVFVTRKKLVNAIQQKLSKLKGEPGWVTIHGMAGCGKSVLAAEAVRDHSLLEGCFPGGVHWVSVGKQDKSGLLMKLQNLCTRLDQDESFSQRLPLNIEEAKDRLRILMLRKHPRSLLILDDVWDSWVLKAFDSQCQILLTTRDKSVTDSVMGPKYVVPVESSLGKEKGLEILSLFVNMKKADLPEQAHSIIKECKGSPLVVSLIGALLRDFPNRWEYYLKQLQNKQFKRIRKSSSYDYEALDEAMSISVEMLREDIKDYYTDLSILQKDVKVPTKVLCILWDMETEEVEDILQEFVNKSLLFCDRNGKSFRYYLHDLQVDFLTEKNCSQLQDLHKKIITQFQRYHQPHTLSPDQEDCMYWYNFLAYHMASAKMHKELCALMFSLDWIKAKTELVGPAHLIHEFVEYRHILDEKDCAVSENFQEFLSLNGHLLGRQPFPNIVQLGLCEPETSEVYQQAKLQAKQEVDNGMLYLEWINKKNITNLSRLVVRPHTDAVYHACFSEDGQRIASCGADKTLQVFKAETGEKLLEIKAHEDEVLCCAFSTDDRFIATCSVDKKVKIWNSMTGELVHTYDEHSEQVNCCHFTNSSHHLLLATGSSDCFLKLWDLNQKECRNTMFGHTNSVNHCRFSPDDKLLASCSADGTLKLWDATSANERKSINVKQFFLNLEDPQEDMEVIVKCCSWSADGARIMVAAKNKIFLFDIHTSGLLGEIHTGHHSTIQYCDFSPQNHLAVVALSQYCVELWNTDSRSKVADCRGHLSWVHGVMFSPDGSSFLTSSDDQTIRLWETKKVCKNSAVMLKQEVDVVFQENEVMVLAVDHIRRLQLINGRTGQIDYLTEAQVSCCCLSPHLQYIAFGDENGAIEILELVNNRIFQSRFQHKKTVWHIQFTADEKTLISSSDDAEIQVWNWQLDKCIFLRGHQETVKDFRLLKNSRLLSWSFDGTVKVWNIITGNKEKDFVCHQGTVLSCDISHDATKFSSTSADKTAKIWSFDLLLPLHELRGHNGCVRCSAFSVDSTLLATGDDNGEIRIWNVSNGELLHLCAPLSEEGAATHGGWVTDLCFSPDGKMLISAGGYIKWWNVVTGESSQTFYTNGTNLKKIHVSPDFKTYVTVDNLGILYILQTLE

[4] = biological target: T3, Voltage-gated N-type calcium channel alpha-1B subunit/Amyloid beta A4 precursor protein-binding family A member 1 (Homo sapiens, UniProt Q00975+Q02410); format: protein assay
[5] = biological target: T3, Voltage-gated N-type calcium channel alpha-1B subunit/Amyloid beta A4 precursor protein-binding family A member 1; format: protein assay; remark: listed apart in the source
[6] = viability loss of HMLE_sh_eGFP cells – cell-based, luminescence, counter-screen for HMLE_sh_ECad selective toxicity project, dose response (AID 463074); format: functional, Homo sapiens;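 further: HMLE human mammary epithelial cells expressing control shRNA against eGFP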
[7] = Luminescence Cell-Based Dose Retest to Confirm Inhibitors of Cancer Stem Cells. [Related pubchem assays (depositor defined):AID2717, AID2721]; format: functional; conditions: Homo sapiens
HeLa = assay: ATP-based viability loss in HeLa cells – cell-based, CellTiter-Glo luminescence, cherry-pick samples, cytotoxicity control for MITF activator project, dose response (AID 540259); format: functional; conditions: Homo sapiens
Keap1/Nrf2 = Keap1/Nrf2 (Homo sapiens, UniProt Q14145); assay: disruptors of Keap1 binding to Nrf2 peptide – biochemical, fluorescence polarization, cherry-picked samples, dose response (AID 588683)
ORF 73 = biological target: T4, ORF 73 (Human herpesvirus 8, UniProt O40947); assay: KSHV LANA DNA-binding disruption – biochemical, fluorescence polarization, cherry-picked samples, dose response (AID 504725); design: species or system Human gammaherpesvirus 8;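 further: fluorescence polarization of a labeled DNA duplex reporting LANA DNA binding; potency is for inhibitors that block LANA binding to the DNA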
T4 sequence (O40947 whole entry): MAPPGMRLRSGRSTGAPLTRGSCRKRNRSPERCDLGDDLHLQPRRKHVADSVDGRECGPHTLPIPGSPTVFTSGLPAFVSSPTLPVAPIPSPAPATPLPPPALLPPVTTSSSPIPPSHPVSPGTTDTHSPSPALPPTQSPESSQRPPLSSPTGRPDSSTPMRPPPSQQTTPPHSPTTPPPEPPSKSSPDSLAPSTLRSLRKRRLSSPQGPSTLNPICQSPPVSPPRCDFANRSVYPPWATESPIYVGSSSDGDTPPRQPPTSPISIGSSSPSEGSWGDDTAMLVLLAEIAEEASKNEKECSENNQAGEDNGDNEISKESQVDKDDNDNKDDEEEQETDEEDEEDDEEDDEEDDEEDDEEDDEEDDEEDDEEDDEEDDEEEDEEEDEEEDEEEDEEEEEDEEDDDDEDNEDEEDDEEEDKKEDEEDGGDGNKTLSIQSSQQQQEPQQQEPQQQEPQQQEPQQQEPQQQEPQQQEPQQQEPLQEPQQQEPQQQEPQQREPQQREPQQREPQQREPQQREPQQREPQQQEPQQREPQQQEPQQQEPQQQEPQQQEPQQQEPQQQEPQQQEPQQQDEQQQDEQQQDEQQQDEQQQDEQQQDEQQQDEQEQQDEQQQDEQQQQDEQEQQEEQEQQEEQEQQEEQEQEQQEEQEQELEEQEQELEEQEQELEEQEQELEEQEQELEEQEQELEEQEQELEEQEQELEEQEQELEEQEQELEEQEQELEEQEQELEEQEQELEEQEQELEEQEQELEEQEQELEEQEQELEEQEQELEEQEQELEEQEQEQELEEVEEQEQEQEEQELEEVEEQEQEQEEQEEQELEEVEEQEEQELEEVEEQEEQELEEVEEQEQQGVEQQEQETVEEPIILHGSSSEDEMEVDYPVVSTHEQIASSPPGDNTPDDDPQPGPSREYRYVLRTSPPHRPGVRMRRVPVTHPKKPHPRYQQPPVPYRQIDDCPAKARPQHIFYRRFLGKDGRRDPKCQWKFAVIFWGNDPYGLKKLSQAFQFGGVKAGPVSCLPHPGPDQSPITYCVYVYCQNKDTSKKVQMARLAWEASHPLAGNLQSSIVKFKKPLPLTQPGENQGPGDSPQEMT

Beta-arrestin-1 = Beta-arrestin-1 (Homo sapiens, UniProt P49407); assay: beta-arrestin/AP2 interaction blockers, potency – biochemical, cherry pick 1, beta2-adaptin appendage, flow cytometry, dose response (AID 588783); format: functional
Cytochrome P450 2D6 = Cytochrome P450 2D6 (Homo sapiens, UniProt P10635);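 further: CYP2D6 member of a cytochrome P450 panel assay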
Cytochrome P450 1A2 = biological target: T5, Cytochrome P450 1A2 (Homo sapiens, UniProt P05177);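 further: PubChem cytochrome P450 panel assay, CYP1A2 panel member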
T5 sequence (P05177 whole entry): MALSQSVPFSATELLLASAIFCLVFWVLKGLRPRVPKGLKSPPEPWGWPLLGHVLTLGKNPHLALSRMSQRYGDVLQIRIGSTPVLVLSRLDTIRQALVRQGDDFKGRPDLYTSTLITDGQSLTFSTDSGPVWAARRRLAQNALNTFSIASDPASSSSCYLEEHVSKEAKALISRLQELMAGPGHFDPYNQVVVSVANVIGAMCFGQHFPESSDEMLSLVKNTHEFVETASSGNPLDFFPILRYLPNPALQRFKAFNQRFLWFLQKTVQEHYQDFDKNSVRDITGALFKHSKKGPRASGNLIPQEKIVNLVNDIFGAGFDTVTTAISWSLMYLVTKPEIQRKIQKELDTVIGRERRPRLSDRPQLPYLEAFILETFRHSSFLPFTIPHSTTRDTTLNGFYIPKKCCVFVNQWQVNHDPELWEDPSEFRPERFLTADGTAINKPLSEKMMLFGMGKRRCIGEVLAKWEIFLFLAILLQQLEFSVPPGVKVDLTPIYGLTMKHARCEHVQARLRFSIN

[8] = biological target: UDP-galactopyranose mutase (Mycobacterium tuberculosis, UniProt P9WIQ1); assay: Inhibitors of Mycobacterium tuberculosis UDP-galactopyranose mutase (UGM) enzyme Measured in Biochemical System Using Plate Reader - 2105-02_Inhibitor_Dose_CherryPick_Activity. [Related pubchem assays (depositor defined):AID504439]
Candida albicans = assay: antifungal activity against resistant Candida strain – CaCi-8, fluconazole, Alamar Blue, dry powder, dose response (AID 488807); format: functional, organism-based
Hexokinase-1 = biological target: T6, Hexokinase-1 (Homo sapiens, UniProt P19367); assay: SAR analysis of small molecule inhibitors of hexokinase domain containing I (HKDC1) in the hexokinase 1 selectivity assay. [Related pubchem assays (depositor defined):AID493160, AID493190]; format: functional
T6 sequence (P19367 whole entry): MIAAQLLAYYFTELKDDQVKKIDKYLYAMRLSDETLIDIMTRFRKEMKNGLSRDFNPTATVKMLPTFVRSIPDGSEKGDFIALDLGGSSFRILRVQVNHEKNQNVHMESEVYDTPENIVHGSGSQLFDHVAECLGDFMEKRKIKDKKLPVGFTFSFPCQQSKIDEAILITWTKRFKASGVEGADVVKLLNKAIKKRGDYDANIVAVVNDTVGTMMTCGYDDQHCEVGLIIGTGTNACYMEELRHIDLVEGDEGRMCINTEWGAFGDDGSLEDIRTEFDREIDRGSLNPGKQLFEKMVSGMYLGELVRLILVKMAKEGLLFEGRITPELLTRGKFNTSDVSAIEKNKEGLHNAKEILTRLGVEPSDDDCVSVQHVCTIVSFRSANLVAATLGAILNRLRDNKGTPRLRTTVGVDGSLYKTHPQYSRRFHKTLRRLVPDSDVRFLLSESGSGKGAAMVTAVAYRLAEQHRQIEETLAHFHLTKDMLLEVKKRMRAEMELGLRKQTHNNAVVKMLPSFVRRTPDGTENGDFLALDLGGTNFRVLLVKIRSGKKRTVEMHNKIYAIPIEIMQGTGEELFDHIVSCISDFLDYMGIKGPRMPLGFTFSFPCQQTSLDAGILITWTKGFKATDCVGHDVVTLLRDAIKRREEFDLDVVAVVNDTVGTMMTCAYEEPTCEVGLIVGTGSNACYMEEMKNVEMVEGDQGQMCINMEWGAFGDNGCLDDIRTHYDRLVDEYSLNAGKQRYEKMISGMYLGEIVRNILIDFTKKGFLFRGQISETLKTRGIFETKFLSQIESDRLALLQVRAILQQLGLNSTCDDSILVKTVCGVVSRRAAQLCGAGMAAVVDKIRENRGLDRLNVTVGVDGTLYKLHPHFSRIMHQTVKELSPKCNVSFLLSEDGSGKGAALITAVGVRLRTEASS

Hexokinase HKDC1 = biological target: T7, Hexokinase HKDC1 (Homo sapiens, UniProt Q2TB90); assay: SAR analysis of small molecule inhibitors of hexokinase domain containing I (HKDC1). [Related pubchem assays (depositor defined):AID493160, AID493190]; format: functional
T7 sequence (Q2TB90 whole entry): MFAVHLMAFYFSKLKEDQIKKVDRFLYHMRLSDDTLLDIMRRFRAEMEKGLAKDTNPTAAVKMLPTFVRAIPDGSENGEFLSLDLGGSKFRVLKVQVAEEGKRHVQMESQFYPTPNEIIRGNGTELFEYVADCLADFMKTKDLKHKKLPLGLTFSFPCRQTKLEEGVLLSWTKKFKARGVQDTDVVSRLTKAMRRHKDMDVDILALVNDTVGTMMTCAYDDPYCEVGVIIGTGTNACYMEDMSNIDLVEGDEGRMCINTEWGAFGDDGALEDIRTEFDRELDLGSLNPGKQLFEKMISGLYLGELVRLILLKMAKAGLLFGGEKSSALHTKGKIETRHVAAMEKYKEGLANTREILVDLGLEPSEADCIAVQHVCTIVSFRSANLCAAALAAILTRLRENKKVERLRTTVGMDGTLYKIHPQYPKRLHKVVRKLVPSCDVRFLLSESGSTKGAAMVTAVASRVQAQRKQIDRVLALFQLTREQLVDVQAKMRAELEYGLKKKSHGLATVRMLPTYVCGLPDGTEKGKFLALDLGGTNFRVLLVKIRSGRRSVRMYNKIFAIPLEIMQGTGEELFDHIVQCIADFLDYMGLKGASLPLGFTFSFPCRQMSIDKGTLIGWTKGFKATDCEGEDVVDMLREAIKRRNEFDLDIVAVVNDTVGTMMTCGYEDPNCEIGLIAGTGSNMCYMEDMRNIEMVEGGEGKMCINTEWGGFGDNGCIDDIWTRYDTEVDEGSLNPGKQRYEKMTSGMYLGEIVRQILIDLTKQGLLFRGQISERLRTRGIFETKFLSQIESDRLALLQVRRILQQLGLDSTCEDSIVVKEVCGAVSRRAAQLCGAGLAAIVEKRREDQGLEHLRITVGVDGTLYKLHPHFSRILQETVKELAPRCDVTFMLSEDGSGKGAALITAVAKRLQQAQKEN

T3 sequence (Q00975 whole entry): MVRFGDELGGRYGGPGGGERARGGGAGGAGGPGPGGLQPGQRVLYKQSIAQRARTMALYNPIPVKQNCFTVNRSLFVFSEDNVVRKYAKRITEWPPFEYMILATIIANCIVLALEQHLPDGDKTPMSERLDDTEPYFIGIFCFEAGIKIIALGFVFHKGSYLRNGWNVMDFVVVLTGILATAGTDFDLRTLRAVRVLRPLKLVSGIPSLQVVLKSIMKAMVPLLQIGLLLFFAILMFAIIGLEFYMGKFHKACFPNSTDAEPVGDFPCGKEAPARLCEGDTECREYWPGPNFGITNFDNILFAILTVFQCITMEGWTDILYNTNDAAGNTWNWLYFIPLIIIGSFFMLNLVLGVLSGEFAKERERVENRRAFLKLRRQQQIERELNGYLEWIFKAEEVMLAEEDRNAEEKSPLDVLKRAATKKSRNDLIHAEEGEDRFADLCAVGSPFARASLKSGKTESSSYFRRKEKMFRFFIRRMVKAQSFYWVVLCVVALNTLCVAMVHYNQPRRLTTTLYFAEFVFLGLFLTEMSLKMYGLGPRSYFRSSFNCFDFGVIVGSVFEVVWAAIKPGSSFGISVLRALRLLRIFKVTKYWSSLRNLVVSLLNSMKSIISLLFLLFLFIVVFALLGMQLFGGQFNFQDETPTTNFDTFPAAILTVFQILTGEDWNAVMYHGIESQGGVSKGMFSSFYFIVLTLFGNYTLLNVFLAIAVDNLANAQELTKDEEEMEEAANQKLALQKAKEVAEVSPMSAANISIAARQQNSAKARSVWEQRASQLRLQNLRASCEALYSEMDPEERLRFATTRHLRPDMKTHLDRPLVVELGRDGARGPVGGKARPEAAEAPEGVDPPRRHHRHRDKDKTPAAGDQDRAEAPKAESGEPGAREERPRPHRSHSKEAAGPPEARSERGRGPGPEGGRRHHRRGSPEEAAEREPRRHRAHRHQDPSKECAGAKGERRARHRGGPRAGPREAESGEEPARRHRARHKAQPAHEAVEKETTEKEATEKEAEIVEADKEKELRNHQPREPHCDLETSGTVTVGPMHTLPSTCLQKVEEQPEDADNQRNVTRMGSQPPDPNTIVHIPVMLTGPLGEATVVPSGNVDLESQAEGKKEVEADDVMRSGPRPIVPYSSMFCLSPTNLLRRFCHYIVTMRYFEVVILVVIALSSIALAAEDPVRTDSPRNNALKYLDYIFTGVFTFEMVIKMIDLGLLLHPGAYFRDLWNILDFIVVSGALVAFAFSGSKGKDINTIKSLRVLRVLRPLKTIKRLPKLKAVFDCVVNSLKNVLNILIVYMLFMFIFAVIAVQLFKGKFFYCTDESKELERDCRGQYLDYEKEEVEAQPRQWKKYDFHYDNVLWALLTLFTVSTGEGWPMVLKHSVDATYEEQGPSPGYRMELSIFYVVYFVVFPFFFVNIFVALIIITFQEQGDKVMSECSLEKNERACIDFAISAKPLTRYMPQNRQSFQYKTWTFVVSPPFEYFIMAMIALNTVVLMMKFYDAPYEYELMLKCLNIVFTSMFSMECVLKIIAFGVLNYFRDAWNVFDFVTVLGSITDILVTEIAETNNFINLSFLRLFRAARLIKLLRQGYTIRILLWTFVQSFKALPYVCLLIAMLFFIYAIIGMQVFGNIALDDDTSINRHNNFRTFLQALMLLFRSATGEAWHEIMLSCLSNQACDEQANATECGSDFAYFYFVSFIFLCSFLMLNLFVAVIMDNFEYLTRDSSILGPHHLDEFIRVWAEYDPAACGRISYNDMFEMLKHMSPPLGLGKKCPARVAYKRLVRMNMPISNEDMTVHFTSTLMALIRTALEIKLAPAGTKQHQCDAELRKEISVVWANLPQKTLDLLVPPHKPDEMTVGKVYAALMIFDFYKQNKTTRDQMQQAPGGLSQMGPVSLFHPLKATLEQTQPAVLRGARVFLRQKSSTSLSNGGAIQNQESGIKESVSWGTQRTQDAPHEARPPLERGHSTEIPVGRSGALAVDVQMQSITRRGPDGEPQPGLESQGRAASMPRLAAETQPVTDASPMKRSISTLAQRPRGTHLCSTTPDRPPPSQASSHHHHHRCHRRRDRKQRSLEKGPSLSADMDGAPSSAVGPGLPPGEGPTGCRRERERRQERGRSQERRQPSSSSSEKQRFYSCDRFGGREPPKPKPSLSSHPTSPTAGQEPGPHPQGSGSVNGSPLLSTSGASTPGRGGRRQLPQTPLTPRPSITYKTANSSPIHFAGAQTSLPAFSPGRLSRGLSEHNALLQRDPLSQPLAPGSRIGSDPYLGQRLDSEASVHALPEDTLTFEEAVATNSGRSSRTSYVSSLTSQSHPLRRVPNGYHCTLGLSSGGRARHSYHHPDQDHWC
T3 sequence (Q02410 whole entry): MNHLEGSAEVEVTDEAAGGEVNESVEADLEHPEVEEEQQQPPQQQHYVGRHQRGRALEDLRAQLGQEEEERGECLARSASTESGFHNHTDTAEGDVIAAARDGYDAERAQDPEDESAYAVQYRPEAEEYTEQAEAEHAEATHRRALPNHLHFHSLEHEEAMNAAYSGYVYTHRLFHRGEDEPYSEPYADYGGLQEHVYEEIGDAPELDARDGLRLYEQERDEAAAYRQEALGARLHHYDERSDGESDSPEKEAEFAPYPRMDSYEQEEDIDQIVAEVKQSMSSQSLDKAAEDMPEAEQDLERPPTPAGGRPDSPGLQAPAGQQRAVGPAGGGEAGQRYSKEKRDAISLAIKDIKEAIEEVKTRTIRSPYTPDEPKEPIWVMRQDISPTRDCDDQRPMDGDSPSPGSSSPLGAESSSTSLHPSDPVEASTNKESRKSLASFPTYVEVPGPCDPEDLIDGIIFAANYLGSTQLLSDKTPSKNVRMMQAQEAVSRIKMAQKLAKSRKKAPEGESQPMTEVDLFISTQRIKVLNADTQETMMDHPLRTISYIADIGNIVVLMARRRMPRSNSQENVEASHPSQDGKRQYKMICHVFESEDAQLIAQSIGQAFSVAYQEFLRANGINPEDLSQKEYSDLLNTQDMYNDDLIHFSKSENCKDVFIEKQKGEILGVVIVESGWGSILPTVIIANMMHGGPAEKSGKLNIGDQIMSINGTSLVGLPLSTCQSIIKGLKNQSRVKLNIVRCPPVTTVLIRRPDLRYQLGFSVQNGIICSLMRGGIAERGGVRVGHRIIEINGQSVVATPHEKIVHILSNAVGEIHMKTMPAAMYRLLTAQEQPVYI
T1 sequence (P63165 whole entry): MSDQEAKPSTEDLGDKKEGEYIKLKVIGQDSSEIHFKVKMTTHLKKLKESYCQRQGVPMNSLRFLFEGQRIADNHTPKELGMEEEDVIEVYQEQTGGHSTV
Keap1/Nrf2, sequence (Q16236 whole entry): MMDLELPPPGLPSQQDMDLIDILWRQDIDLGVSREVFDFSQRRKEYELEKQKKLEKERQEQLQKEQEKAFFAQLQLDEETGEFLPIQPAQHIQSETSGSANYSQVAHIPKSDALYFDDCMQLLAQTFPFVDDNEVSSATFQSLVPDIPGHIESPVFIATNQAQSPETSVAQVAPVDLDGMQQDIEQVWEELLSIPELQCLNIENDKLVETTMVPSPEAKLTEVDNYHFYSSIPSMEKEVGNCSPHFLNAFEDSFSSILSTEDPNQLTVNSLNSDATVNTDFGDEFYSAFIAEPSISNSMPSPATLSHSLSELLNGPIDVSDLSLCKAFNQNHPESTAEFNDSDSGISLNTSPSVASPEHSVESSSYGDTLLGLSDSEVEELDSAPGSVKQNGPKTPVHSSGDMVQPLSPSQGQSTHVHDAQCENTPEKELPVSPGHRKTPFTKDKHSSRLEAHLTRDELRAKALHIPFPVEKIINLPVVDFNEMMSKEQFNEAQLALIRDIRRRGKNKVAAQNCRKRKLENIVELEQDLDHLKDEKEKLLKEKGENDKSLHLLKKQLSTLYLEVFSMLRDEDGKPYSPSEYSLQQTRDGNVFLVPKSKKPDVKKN
Keap1/Nrf2, sequence (Q14145 whole entry): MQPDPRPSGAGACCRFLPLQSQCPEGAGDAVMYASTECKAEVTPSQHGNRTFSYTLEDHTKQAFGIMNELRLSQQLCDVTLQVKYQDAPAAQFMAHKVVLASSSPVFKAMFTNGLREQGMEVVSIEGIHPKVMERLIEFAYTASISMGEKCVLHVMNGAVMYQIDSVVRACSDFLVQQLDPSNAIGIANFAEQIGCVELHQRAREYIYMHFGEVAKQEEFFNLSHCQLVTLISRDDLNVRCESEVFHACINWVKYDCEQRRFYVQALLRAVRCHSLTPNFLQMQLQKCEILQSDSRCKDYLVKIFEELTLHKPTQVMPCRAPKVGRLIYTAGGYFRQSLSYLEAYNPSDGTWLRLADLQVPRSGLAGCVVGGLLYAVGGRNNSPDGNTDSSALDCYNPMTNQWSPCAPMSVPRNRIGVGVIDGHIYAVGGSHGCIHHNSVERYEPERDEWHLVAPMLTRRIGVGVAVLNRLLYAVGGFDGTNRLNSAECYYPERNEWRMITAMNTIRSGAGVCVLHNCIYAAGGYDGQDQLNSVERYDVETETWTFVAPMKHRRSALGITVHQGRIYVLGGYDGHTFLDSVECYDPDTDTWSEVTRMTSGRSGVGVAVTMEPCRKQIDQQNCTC
Cytochrome P450 2D6, sequence (P10635 whole entry): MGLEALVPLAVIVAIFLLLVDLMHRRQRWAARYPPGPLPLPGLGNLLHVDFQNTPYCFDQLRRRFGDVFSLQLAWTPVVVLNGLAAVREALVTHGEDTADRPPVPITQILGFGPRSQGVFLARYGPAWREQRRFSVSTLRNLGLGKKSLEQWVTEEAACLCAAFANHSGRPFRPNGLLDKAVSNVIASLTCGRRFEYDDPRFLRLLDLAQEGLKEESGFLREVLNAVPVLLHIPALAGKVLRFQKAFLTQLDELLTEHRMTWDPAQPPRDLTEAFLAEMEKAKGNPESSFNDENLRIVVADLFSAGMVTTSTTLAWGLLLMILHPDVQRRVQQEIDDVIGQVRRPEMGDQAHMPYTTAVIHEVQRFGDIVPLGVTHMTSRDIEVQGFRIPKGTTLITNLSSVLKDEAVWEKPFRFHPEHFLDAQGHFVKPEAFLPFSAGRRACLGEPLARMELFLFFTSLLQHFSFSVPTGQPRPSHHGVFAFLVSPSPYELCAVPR

N#Cc1nc(-c2ccc(OCc3ccc(Cl)cc3)cc2)oc1N1CCC(C(N)=O)CC1
IC50 [1]: > 66.6 µM (inactive) | IC50 [2]: 8.79 µM (active) | EC50 [3]: 7.04 µM (active) | IC50 [4]: 47.3 µM (active) | IC50 [5]: 3.78 µM (active)

O=C(CSc1nc(-c2ccco2)cc(C(F)(F)F)n1)Nc1ccccc1C(F)(F)F
AC50 [6]: 23.1 µM (active) | AC50 [7]: 5.71 µM (active)

O=C(c1cccs1)N1CCn2c1nc1ccccc12
AC50 (HeLa): 115 µM (active)

Fc1ccc(C2=CC(c3ccc(Br)o3)n3ncnc3N2)cc1 (configuration not stated)
AC50 (Keap1/Nrf2): 24 µM (active) | AC50 (ORF 73): 10.8 µM (active)

Cc1ccc(C2Nc3cccc4cccc(c34)N2)s1
IC50 (Beta-arrestin-1): 15.3 µM (inactive)

Cn1c(=O)c2nc(SCc3ccccn3)[nH]c2n(C)c1=S
AC50 (Cytochrome P450 2D6): inconclusive | AC50 (Cytochrome P450 1A2): 0.0126 µM (inconclusive)

CC(C)(C)c1cc[n+](-c2[n-]c(=O)sc2C=NN=C(S)Nc2ccccc2)cc1
AC50 [8]: 65.5 µM (active)

COC(=O)Cn1nc(-c2ccc(Cl)cc2)c2ccccc21
AC50 (Candida albicans): 2.16 µM (active)

O=c1c2ccccc2nc(/C=C/c2cccnc2)n1Cc1cccc(F)c1
IC50 (Hexokinase-1): > 80 µM (inactive) | IC50 (Hexokinase HKDC1): > 80 µM (inactive)
